# Reference: patent US10357481B2 (MERCK SHARP & DOHME CORP., priority 2015, dated 2019)
# Target: T1, human PDE2A1 (Homo sapiens, UniProt O00408)
# T1 construct: GST; purchased BPS Bioscience (San Diego, Calif.) 60020; host or cells: insect cells
# Assay: IMAP FP PDE selectivity panel, human PDE2A1
# Format: biochemical
# Conditions: Lab B; read-out: Human PDE2 Ki (nM) Lab B
# Outline: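 IMAP FP read-out, run at room temperature in parallel with PDE1–11: enzyme at 20% substrate conversion, 50 nM FAM-cAMP containing 1000 nM cGMP, Tris pH 7.2/MgCl2/DTT buffer. Compounds as ten 3-fold dilutions. Reaction 60 min, stopped with binding reagent for 1 h before polarization measurement.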
# T1 sequence (O00408 1-920 isoform O00408-2): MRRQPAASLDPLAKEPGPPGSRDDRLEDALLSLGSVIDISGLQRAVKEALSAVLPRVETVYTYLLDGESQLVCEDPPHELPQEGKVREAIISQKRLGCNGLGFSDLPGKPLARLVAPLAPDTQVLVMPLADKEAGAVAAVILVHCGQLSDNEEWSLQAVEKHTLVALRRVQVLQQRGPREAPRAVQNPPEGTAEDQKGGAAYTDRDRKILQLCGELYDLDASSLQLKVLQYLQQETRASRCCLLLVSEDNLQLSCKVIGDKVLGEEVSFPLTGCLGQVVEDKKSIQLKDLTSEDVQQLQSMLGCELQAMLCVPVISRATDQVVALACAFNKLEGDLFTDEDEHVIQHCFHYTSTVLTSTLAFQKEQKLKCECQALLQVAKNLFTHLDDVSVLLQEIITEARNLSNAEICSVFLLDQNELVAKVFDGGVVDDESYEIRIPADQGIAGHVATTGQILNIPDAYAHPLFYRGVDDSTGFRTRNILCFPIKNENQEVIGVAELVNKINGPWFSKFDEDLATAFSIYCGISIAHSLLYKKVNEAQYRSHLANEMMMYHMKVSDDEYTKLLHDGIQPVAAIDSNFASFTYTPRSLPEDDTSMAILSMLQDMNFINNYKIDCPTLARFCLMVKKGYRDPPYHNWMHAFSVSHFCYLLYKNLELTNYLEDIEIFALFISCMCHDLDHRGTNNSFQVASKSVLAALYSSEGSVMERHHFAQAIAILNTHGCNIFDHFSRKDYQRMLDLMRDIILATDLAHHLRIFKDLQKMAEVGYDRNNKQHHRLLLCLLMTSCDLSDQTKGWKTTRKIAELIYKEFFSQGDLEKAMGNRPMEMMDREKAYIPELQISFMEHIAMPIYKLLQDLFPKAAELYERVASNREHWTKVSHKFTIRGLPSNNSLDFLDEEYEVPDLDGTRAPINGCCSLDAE
row,Compound,Ki [nM]
1,"Cc1nc2ncnn2c(N[C@@H](C)c2ccc(C(F)(F)F)cc2)c1C [Example 86, 5,6-Dimethyl-N-{(1S)-1-[4-(trifluoromethyl)phenyl]ethyl}[1,2,4]triazolo[1,5-a]pyrimidin-7-amine]",~1750
2,"CC1(c2ccc(C(Nc3cc(C(F)(F)F)nc4ncnn34)C(C)(C)O)cc2)CC1 (single isomer, unassigned) [Example 179, (1S or R)-2-Methyl-1-[4-(1-methylcyclopropyl)phenyl]-1-{[5-(trifluoromethyl) [1,2,4]triazolo [1,5-a]pyrimidin-7-yl]amino} propan-2-ol]",> 2960
3,"CC(C)(O)C(Nc1cc(C2CC2)nc2ncnn12)c1ccc(S(F)(F)(F)(F)F)cc1 (single isomer, unassigned) [Example 144, (1S or R)-1-[(5- Cyclopropyl [1,2,4]triazolo [1,5-a]pyrimidin-7-yl)amino]-2-methyl-1-[4-(pentafluoro-λ^6-sulfanyl)phenyl]propan-2-ol]",> 2960
4,"(R or S)-2,2-Dimethyl-3-(3-methyl-4-(trifluoromethoxy)phenyl)-3-(5-methyl-[1,2,4]triazolo[1,5-a]pyrimidin-7-ylamino)propan-1-ol [Example 231]",7.3
5,"CC(C)(O)C(Nc1cc(C(F)F)nc2ncnn12)c1ccc(OC(F)F)c(F)c1 (single isomer, unassigned) [Example 190, (1R or S)-[4-(Difluoromethoxy)-3-fluorophenyl]-1-{[5-(difluoromethyl) [1,2,4]triazolo [1,5-a]pyrimidin-7-yl]amino}-2-methylpropan-2-ol]",> 2960
6,"Cc1cc(NC2(c3ccc(C(F)(F)F)cc3)CCC2)n2ncnc2n1 [Example 64, 5-Methyl-N-{1-[4-(trifluoromethyl)phenyl]cyclobutyl}[1,2,4]triazolo [1,5-a]pyrimidin-7-amine]",77
7,"CC(C)(O)C(Nc1cc(C(F)(F)F)nc2ncnn12)c1ccc(C(F)(F)F)cc1F (single isomer, unassigned) [Example 174, (1R or S)-1-[2-Fluoro-4-(trifluoromethyl)phenyl]-2-methyl-1-{[5-(trifluoromethyl) [1,2,4]triazolo [1,5-a]pyrimidin-7-yl]amino} propan-2-ol]",29
8,"Cc1cc(N[C@H](c2ccc(OC(F)(F)F)cc2Cl)C(C)(C)O)n2ncnc2n1 [Example 101, (1R)-1-[2-Chloro-4-(trifluoromethoxy)phenyl]-2-methyl-1-[(5-methyl[1,2,4]triazolo[1,5-a]pyrimidin-7-yl)amino]propan-2-ol]",27
9,"CC(C)(O)[C@@H](Nc1cc(C(F)(F)F)cc2ncnn12)c1ccc(OC(F)(F)F)cc1F [Example 278, (1S)-1-[2-Fluoro-4-(trifluoromethoxy)phenyl]-2-methyl-1-{[7-(trifluoromethyl) [1,2,4]triazolo[1,5α]pyridin-5-yl]amino}propan-2-ol]",92
10,"Cc1cc(OC2(c3ccc(C(F)(F)F)cc3)CC2)n2ncnc2n1 [Example 262, 5-Methyl-7-({1-[4-(trifluoromethyl)phenyl]cyclopropyl}oxy)[1,2,4]triazolo[1,5-a]pyrimidine]",137
11,"Cc1cc(NC(c2ccc(C3(C)CC3)cc2)C(C)(C)O)n2ncnc2n1 (single isomer, unassigned) [Example 120, (1S or R)-2-Methyl-1-[4-(1-methyl-cyclopropyl)phenyl]-1-[(5-methyl[1,2,4]triazolo[1,5-a]pyrimidin-7-yl)amino]propan-2-ol]",> 2960
12,"Cc1cc(N[C@H](C)c2ccc(C(F)(F)F)cc2)n2ncnc2n1 [Example 1, 5-Methyl-N-{(1R)-1-[4-(trifluoromethyl)phenyl]ethyl}[1,2,4]triazolo[1,5-a]pyrimidin-7-amine]",175
13,"C[C@@H](Nc1cc(CO)cc2ncnn12)c1ccc(C(F)(F)F)cc1 [Example 267, [5-({(1R)-1-[4-(Trifluoromethyl)phenyl]ethyl}amino)[1,2,4]triazolo[1,5-a]pyridin-7-yl] methanol]",236
14,"C[C@H](Nc1cc(CO)cc2ncnn12)c1ccc(C(F)(F)F)cc1 [Example 268, [5-({(1S)-1-[4-(Trifluoromethyl)phenyl]ethyl}amino)[1,2,4]triazolo[1,5-a]pyridin-7-yl] methanol]",2080
15,"Cc1cc(NC(c2cc3ccccc3n2C)C(C)(C)O)n2ncnc2n1 (single isomer, unassigned) [Example 124, (1S or R)-2-Methyl-1-(1-methyl-1H-indol-2-yl)-1-[(5-methyl [1,2,4]triazolo [1,5-a]pyrimidin-7-yl)amino] propan-2-ol]",79
16,"CC(C)(O)[C@@H](Nc1cc(C(F)(F)F)cc2ncnn12)c1ccc(C(F)(F)F)cc1 [Example 277, (1S)-2-Methyl-1-[4-(trifluoromethyl)phenyl]-1-{[7-(trifluoromethyl)[1,2,4]triazolo [1,5-a]pyridin-5-yl]amino} propan-2-ol]",87
17,"Cc1cc(NC(C)(C)c2ccc(OC(F)(F)F)cc2F)n2ncnc2n1 [Example 51, N-{1-[2-Fluoro-4-(trifluoromethoxy)phenyl]-1-methylethyl}-5-methyl [1,2,4]triazolo[1,5-a]pyrimidin-7-amine]",206
18,"Cc1cc(NC2(c3ccc(C(F)(F)F)c(F)c3)CC2)n2nc(C3CC3)nc2n1 [Example 195, 2-Cyclopropyl-N-(1-(3-fluoro-4-(trifluoromethyl)phenyl)cyclopropyl)-5-methyl-[1,2,4]triazolo [1,5-a]pyrimidin-7-amine]",144
19,"Cc1cc(N[C@@H](c2ccc(C3CC3)c(F)c2)C(C)(C)C)n2ncnc2n1 [Example 31, N-[(1R)-1-(4-Cyclopropyl-3-fluorophenyl)-2,2-dimethylpropyl]-5-methyl[1,2,4]triazolo[1,5-a] pyrimidin-7-amine]",4.9
20,"CC(C)c1cc(NC(c2ccc(OC(F)(F)F)cc2F)C(C)(C)O)n2ncnc2n1 (single isomer, unassigned) [Example 136, (1S or R)-1-[2-Fluoro-4-(trifluoro-methoxy)phenyl]-2-methyl-1-{[5-(1-methylethyl) [1,2,4]triazolo [1,5-a]pyrimidin-7-yl]amino} propan-2-ol]",> 2960
21,"CC(C)(O)C(Nc1cc(C(F)F)nc2ncnn12)c1ccc(OC(F)(F)F)c(F)c1 (single isomer, unassigned) [Example 187, (1S or R)-{[5-(Difluoromethyl) [1,2,4]triazolo [1,5-a]pyrimidin-7-yl]amino}-1-[3-fluoro-4-(trifluoromethoxy)phenyl]-2-methylpropan-2-ol]",5.5

# Further lines, results first:
row,Ki [nM],Compound
1,17,"Cc1cc(N[C@@H](c2ccc(OC(F)F)cc2)C(C)(C)C)n2ncnc2n1 [Example 33, N-{(1R)-1-[4-(Difluoromethoxy)phenyl]-2,2-dimethylpropyl}-5-methyl[1,2,4]triazolo[1,5-a] pyrimidin-7-amine]"
2,93,"Cc1cc(NC(c2ccc3c(c2)OC(F)(F)O3)C(C)(C)O)n2ncnc2n1 (single isomer, unassigned) [Example 113, (1R or S)-1-(2,2-Difluoro-1,3-benzodioxol-5-yl)-2-methyl-1-[(5-methyl[1,2,4]triazolo[1,5-a]pyrimidin-7-yl)amino]propan-2-ol]"
3,121,"C[C@@H](Nc1cc(CO)cc2ncnn12)c1ccc(C(F)(F)F)c(F)c1 [Example 272, [5-({(1R)-1-[3-Fluoro4-(trifluoromethyl)phenyl]ethyl}amino)[1,2,4]triazolo[1,5-a]pyridin-7-yl]methanol]"
4,> 2960,"Cc1cc(N[C@H](c2ccc(F)c(OC(F)(F)F)c2)C(C)(C)O)n2ncnc2n1 [Example 131, (1R)-1-[4-Fluoro-3-(trifluoro-methoxy)phenyl]-2-methyl-1-[(5-methyl[1,2,4]triazolo[1,5-a]pyrimidin-7-yl)amino]propan-2-ol]"
5,~2780,"Cc1cc(NC(c2ccc(C(F)(F)F)cc2Cl)C(C)(C)O)n2ncnc2n1 (single isomer, unassigned) [Example 104, (1S or R)-1-[2-Chloro-4-(trifluoromethyl)phenyl]-2-methyl-1-[(5-methyl[1,2,4]triazolo[1,5-a]pyrimidin-7-yl)amino]propan-2-ol]"
6,10,"Fc1cc(C2(Nc3cc(C(F)(F)F)nc4ncnn34)CC2)ccc1C(F)(F)F [Example 82, N-{1-[3-Fluoro-4-(trifluoromethyl)phenyl]cyclopropyl}-5-(trifluoromethyl)-[1,2,4]triazolo[1,5-a]pyrimidin-7-amine]"
7,140,"OCCc1cc(NC2(c3ccc(C(F)(F)F)c(F)c3)CC2)n2ncnc2n1 [Example 251, 2-(7-(1-(3-Fluoro-4-(trifluoromethyl)phenyl)cyclopropylamino)-[1,2,4]triazolo[1,5-a]pyrimidin-5-yl)ethanol]"
8,17,"CC(C)(O)C(Nc1cc(C(F)F)nc2ncnn12)c1ccc(OC(F)F)c(F)c1 (single isomer, unassigned) [Example 189, (1S or R)-[4-(Difluoromethoxy)-3-fluorophenyl]-1-{[5-(difluoromethyl) [1,2,4]triazolo [1,5-a]pyrimidin-7-yl]amino}-2-methylpropan-2-ol]"
9,20,"Cc1cc(N[C@@H](c2ccc(C3CC3)c(F)c2)C2CC2)n2ncnc2n1 [Example 38, N-[(R)-Cyclopropyl(4-cyclopropyl-3-fluorophenyl)methyl]-5-methyl[1,2,4]triazolo[1,5-a] pyrimidin-7-amine]"
10,> 2960,"CC(C)(C)c1cc(NC(c2ccc(S(F)(F)(F)(F)F)cc2)C(C)(C)O)n2ncnc2n1 (single isomer, unassigned) [Example 151, (1R or S)-1-[(5-tert-Butyl[1,2,4]triazolol[1,5-a]pyrimidin-7-yl)amino]-2-methyl-1-[4-(pentafluoro-λ^6-sulfanyl)phenyl] propan-2-ol]"
11,60,"Cc1cc(NC(c2ccc(C(F)(F)F)c(F)c2)C(C)(C)N)n2ncnc2n1 (centres unmarked) [Example 252, 1-(3-Fluoro-4-(trifluoromethyl)phenyl)-2-methyl-N-(5-methyl-[1,2,4]triazolo[1,5-a]pyrimidin-7-yl)propane-1,2-diamine]"
